# Measured values: patent publication US20160279108A1, “TARGETED MTOR INHIBITORS” (UNIVERSITY OF KANSAS, priority 2015, published 2016)
# What was measured:
# 4T1.2neu breast cancer = test: Animal survival and tumor suppression study; details: for median survival time: 10 mg/kg equivalent rapamycin once per week for 3 weeks, free rapamycin i.p., HA-L-Rapa s.c., control 17 days
# [1] = Stak (US 20110201639 A1) for tacrolimus; cited from earlier work
# [2] = cited from earlier work
# [3] = Tissue distribution in tumor-bearing mice; type: in vivo, BALB/c mice; details: for concentration at 12 h: female, BALB/c, mouse, intraperitoneal, 10 mg/kg
# Method: Drug tissue distribution was determined in female BALB/c mice (n=5). Tissue samples (50 mg) in 500 μL PBS were homogenized using a Tissue Tearor (BioSpec Products, Inc., Bartivesville, Okla.). The homogenized tissue was mixed with 250 μL ZnSO4 and 500 μL methanol. The mixture solution was centrifuged and the supernatant was analyzed by LC/MS.
# In the tissue distribution study, BLAB/c mice were administered the drugs 12 h before being euthanized. Major organs (liver, kidneys, hear, spleen, lungs, brain, muscle), tumor and lymph nodes were excised and lightly washed with PBS. The organs were stored at −80° C. until analyzed by LC/MS.
# [4] = i.v., rats, own previous studies; cited from earlier work
# [5] = mice, 2 mg/kg; cited from earlier work
# [6] = Pharmacokinetics study in rats; type: in vivo, Sprague-Dawley rats
# Method: Whole blood was withdrawn (100 μL) from the tail vein at 0 min, 5 min, 30 min, 1 h, 2 h, 4 h, 6 h, 12 h, 24 h and 48 h after dosing and placed in heparinized tubes (BD Vacutainer® Lithium Heparin 37 USP unit, BD Franklin Lakes, N.J.). The whole blood was centrifuged at 15,000×g for 10 min, and the plasma was frozen at −80° C. until analyzed. The animal use statement was approved by the University of Kansas Institutional Animal Care and Use Committee. Plasma samples and stander curves were prepared using a procedure reported previously.
# MDA-MB-468 cells [7] = details: 10 μM
# Method: Breast cancer cells, MDA-MB-468, were seeded in a 12-well plate at the concentration of 50,000 cells/well in 1 mL of growth medium. After 12 h incubation, 10 μL of human anti-CD44 antibody was added to each well.
# MDA-MB-468 cells [8] = details: MDA-MB-468 with H-CAM blocking of CD44, p=0.065
# Method: Breast cancer MDA-MB-468 cells were maintained in Dulbecco's modified eagle medium supplemented with 10% fetal bovine serum (Hyclone Laboratory Inc., Logan, Utah). Cells were plated in white 96-well flat-bottomed plates at the concentration of 5,000 cells/well in 90 μL of growth medium. […] Hanks' solution and 10% trichloroacetic acid (TCA) were used as negative and positive control, respectively. The medium was refreshed 8 h after treatment. After 72 h post-treatment, resazurin blue (5 μM) was added and the resorufin product was measured with a fluorophotometer using an excitation wavelength of 550 nm and an emission wavelength of 590 nm.
# [9] = in vivo; cited from earlier work
# [10] = female, Sprague-Dawley, rat, plasma, ip, 10 mg/kg
compound,measurement,setting,value
CO[C@H]1C[C@@H]2CC[C@@H](C)[C@@](O)(O2)C(=O)C(=O)N2CCCC[C@H]2C(=O)O[C@H]([C@H](C)C[C@@H]2CC[C@@H](O)[C@H](OC)C2)CC(=O)[C@H](C)/C=C(\C)[C@@H](O)[C@@H](OC)C(=O)[C@H](C)C[C@H](C)/C=C/C=C/C=C/1C [rapamycin],median survival time,4T1.2neu breast cancer,15 days
same,stability at alkaline pH conditions,[1],degrade rapamycin rapidly in hours or less
same,findings after i.v. administration,[2],"injury (swelling and focal lesion) at the injection site, lymphoid atrophy and periarterial edema in the heart, liver"
same,concentration at 12 h,[3]; brain,108 ± 37.4 ng/g
same,concentration at 12 h,[3]; heart,441 ± 81.6 ng/g
same,concentration at 12 h,[3]; kidneys,469 ± 27.3 ng/g
same,concentration at 12 h,[3]; liver,379 ± 40.6 ng/g
same,concentration at 12 h,[3]; lungs,618 ± 299 ng/g
same,concentration at 12 h,[3]; lymph nodes,705 ± 116 ng/g
same,concentration at 12 h,[3]; muscle,316 ± 154 ng/g
same,concentration at 12 h,[3]; spleen,183 ± 66.5 ng/g
same,Mean concentration of rapamycin in Tumor,"[3]; mice, 12 h post 10 mg/kg equivalent rapamycin, i.p. (free rapamycin), s.c. (HA-L-Rapa), Mean ± SD, n=5",1240 ± 256 ng/g
same,mortality,[4],40%
same,skin finding after subcutaneous administration,[5],skin ulceration
same,AUC(0-inf),[6]; [10],2360 ± 460 ng·h/mL
same,Cmax,[6]; [10],173 ± 69.1 ng/mL
same,half-life,[6]; [10],10.4 ± 3.76 h
same,Vd,"[6]; rats, free rapamycin i.p., HA-L-Rapa s.c., 10 mg/kg equivalent rapamycin, Mean ± SD, n=3",37.68 ± 15.49 L/kg
same,CI,"[6]; rats, free rapamycin i.p., HA-L-Rapa s.c., Mean ± SD, n=3",70.5 ± 15.8 mL/min/kg
C=CC[C@@H]1/C=C(\C)C[C@H](C)C[C@H](OC)[C@H]2O[C@@](O)(C(=O)C(=O)N3CCCC[C@H]3C(=O)O[C@H](/C(C)=C/[C@@H]3CC[C@@H](O)[C@H](OC)C3)[C@H](C)[C@@H](O)CC1=O)[C@H](C)C[C@@H]2OC [tacrolimus],stability at alkaline pH conditions,[1],stable at alkaline pH conditions for over a week
HA-Rapamycin-42-(3′-amino-4′-methoxy)benzoate [HA-L-Rapa],tumor volume on day 20 compared with the control group,4T1.2neu breast cancer; 10 mg/kg equivalent rapamycin,significant decrease
same,median survival time,4T1.2neu breast cancer,22 days
same,lung metastases observed at necropsy (animals of group),"4T1.2neu breast cancer; 4T1.2neu model, n=5",1/5
same,survival compared with control,4T1.2neu breast cancer; BALB/c mice with 4T1.2neu breast cancer,significantly longer survival
same,incidence of ulcerated tumor,4T1.2neu breast cancer; mammary carcinoma bearing mice,diminished the incidence of ulcerated tumor
same,tumor growth compared to the non-treatment group,4T1.2neu breast cancer; mammary carcinoma bearing mice,significantly inhibited tumor growth
same,rapamycin uptake compared to the free drug,"MDA-MB-468 cells [7]; CD44 blocked with H-CAM, p=0.13",no difference
same,drug uptake compared to free rapamycin,"MDA-MB-468 cells [7]; CD44 positive cells, p=0.012",3.2 times
same,cell viability compared to the free drug,MDA-MB-468 cells [8],no significant difference
hyaluronic acid,turnover half-life,[9],12 to 72 h
